Legend:
Assay type in all cases: cell-based
[1] = tested on: PGE2 release from passage 3 normal human chondrocytes; assay: Rescue versus preincubation regimens, IL-1β-induced PGE2 release from passage 3 normal human chondrocytes; details: 25 μM Dec, 28 mM Lac, 10 μM LA, singlet
Source text: The mechanisms of action (MOA) of a drug often dictate the timing and delivery of treatment regimens. While the MOA of compounds disclosed herein continue to be elucidated, experiments were designed to help establish how the drugs should be administered. Furthermore, these experiments will also help with hypothesis generation for subsequent MOA investigations. A low-passage chondrocyte monolayer model was utilized to establish how changes in drug delivery impact the inhibition of IL-1β-induced PGE2 release seen following treatment with the compounds under investigation.
Passage 3 normal human chondrocytes were seeded into tissue culture plates and then tested for compound activity by pre-treating for 24 hours, administering at the same time as activation, or by adding to cells following an overnight activation with IL-1β. Treatment groups included medium control, 25 μM decanoate (Dec), 28 mM D/L sodium Lac, and 10 μM LA. PGE2 release was then evaluated 24- or 96-hours post-activation with percent inhibitions calculated versus plate- and block-matched controls. The experiments were performed in singlet and are intended to be repeated to establish variance.

[2] = tested on: Col2a1 expression in human osteoarthritic chondrocytes; assay: Col2a1 relative expression in human osteoarthritic chondrocytes (passage 5) cultured 27 days; details: 50 micromolar Dec, 0.1 μM Dxp, 100 mM Lac
Protocol: To evaluate the biological ramifications of the SOX9 to RUNX2 regulation mentioned above, delta-delta relative gene expression was assessed against medium controls, with normalization to GAPDH for both Col2a1 and Col1a1 in the samples tested with reference to Example 15. […] Moreover, treatment with 100 mM Lac increased collagen expression (49.88±4.31 and 1.63±0.20 for Col2a1 and Col1a1, respectively; FIGS. 51 and 52).

[3] = tested on: Elastin (ELN) expression in normal human dermal fibroblasts (NHDF); assay: ELN mRNA in NHDF activated with TGF-β1 or IL-1β, 24 h, qRT-PCR; details: 100 mM Lac or 0.1 mM Dxp
Protocol: After 24 hours, total mRNA was isolated and delta-delta Cp relative expression was calculated versus untreated medium controls, normalized to the housekeeping gene, GAPDH. Statistical analysis was then conducted via t-test.

In the case of `CC(O)C(=O)O` (centres unmarked) [Lac, lactate], the “inhibition of PGE2 release” value ([1]; rescue (added after overnight IL-1β activation), 24-hour harvest) was 64%, the “inhibition of PGE2 release” value ([1]; rescue, 96-hour harvest) was 27% and the “Col2a1 delta-delta relative gene expression” value [2] was 49.88±4.31 fold. The “relative expression of ELN” value ([3]; IL-1β 0.1 ng/ml, IL-1β alone 18±12, n=3) was 0.86±3 and the “relative expression of ELN” value ([3]; TGF-β1 10 ng/ml, TGF-β1 alone 110±35, n=3) was 45+36.

From patent publication US20250288599A1, “PHARMACEUTICAL COMPOSITIONS AND METHODS FOR TREATING OSTEOARTHRITIS” (INSIGNIA PHARMACEUTICALS, LLC, priority 2024, published 2025)
